Publication PMC9103789 (International Journal of Molecular Sciences, 2022)
Values joined by “and” are separate entries in the source; they are usually repeats but may differ in a detail not shown here. Equal entries are not always repeated.

Legend:
[1] = Intrinsic clearance in human liver microsomes (in-house data); format: in vitro ADME; settings: read-out: CLint,HLM
From the text: All physicochemical and in vitro pharmacokinetic parameters were obtained from the literature or predicted by Simcyp® Simulator (version 16, Certara, Sheffield, U.K.). The intrinsic clearance value of pooled HLMs and human tacrolimus PBPK model was retrieved from our previous publication. The models for CYP3A5 expressers/non-expressers were built by modifying our established model with intrinsic clearance values of each CYP isoform. With the inhibitory parameters acquired from our experiments, a DDI module was incorporated into the PBPK model of tacrolimus.

[2] = design: method as in PMID 25392942; settings: after oral administration of WZC, healthy Chinese, plasma; cited from earlier work
[3] = system: CYP3A; assay: IC50 shift assay in pooled HLMs (testosterone 6β-hydroxylation); format: in vitro ADME; settings: human, pooled human liver microsomes, pH 7.4, probe testosterone (200 μM); for IC50 at 30 min / IC50: pooled HLMs; for IC50 at 30 min: 30 min preincubation with NADPH; for IC50: no preincubation
Procedure: Pooled HLMs were used in this assay to determine the IC50 shift and identify time-dependent inhibition. The experiment was divided into two groups, depending on preincubation status. […] In all samples, the final concentrations of organic solvents were not more than 1% (V/V). Schizandrol (A or B) was pre-incubated with the pooled HLMs and testosterone for 3 min at […]. In the groups without 30-minute preincubation, the reaction was started upon the addition of NADPH and terminated by 200 μL of ice-cooled methanol containing 0.315 μM of prednisolone (internal standard). […] Next, testosterone was added to initiate the reaction. The reaction was terminated with the same method. All experiments were carried out in triplicates.
The formation of 6β-hydroxytestosterone in a control group was used as a surrogate marker for remaining enzymes’ activity. […] IC50 shift value was determined by Equation (2). […] (2) IC50 shift=IC50 without NADPH preincubation/IC50 with NADPH preincubation

[4] = molecular target: T1, CYP3A4 (Homo sapiens, UniProt P08684); assay: Time-dependent inhibition (TDI) assay in CYP3A5 *3/*3 HLMs; format: in vitro ADME; settings: for KI / kinact/KI: CYP3A4, genotyped HLMs; for kinact: human, CYP3A5 *3/*3 genotyped human liver microsomes, probe testosterone (200 μM), 6β-hydroxytestosterone formation
T1 construct: replacing pooled HLMs with CYP3A5 * 3/*3 HLMs; tissue Transheep Co., Ltd. (Shanghai, China) lot: 0710253; host or cells: human liver microsomes, CYP3A5 *3/*3 genotype
Procedure: (§1) A two-step protocol was followed to perform the general TDI assay. […] The reaction was initiated upon addition of NADPH (1 mM). At the designated time points (0, 5, 10, 20, or 30 min), an aliquot (20 μL) of the incubation mixture was transferred to a 180-microliter pre-warmed solution containing PBS (0.1 M), testosterone (200 μM) and NADPH (1 mM) for another 10-minute incubation. […] For the CYP3A5 experiment, CYP3cide and CYP3A5 * 1/*3 HLMs were pre-warmed for 3 min before the reaction initiation. […] All experiments were carried out in triplicates.
(§2) [I] stands for the inhibitor concentration. A high ratio of kinact over KI indicates great inhibitory potency. (3) kobs=kinact×[I]/KI+[I]

[5] = system: CYP3A (pooled HLMs); assay: Reversible inhibition (RI) assay, tacrolimus metabolism in pooled HLMs; format: in vitro ADME, human; settings: Dixon plot
Procedure: (§3) The reactions started upon the addition of NADPH and were terminated after 10 min by adding 200 μL of ice-cooled acetonitrile containing 0.1 μM of ascomycin (internal standard). […] The reaction was also terminated with ice-cooled acetonitrile. All experiments were carried out in triplicates. […] The intersection of lines was used to calculate the Ki value.

[6] = molecular target: CYP3A; assay: Time-dependent inhibition (TDI) assay in pooled HLMs; format: in vitro ADME, human; settings: for kinact: human, pooled human liver microsomes, probe testosterone (200 μM), 6β-hydroxytestosterone formation
Procedure: as §1, §2

[7] = design: method as in PMID 32250458; settings: cited from earlier work
[8] = molecular target: T2, CYP3A4 (CYP3A5 *3/*3 HLMs) (Homo sapiens, UniProt P08684); assay: Reversible inhibition (RI) assay in genotyped HLMs; format: in vitro ADME; settings: Dixon plot, tacrolimus substrate
T2 construct: replacing pooled HLMs with CYP3A5 * 3/*3 HLMs; tissue Transheep Co., Ltd. (Shanghai, China) lot: 0710253; host or cells: human liver microsomes, CYP3A5 *3/*3 genotype
Procedure: (§4) The reactions started upon the addition of NADPH and were terminated after 10 min by adding 200 μL of ice-cooled acetonitrile containing 0.1 μM of ascomycin (internal standard). […] The reaction was also terminated with ice-cooled acetonitrile. All experiments were carried out in triplicates.
(§5) Linear regression implemented in GraphPad Prism was plotted with the reciprocal value of metabolic reaction rate (1/v) against inhibitor concentration. The intersection of lines was used to calculate the Ki value.

[9] = molecular target: T3, CYP3A5 (Homo sapiens, UniProt P20815); assay: Time-dependent inhibition (TDI) assay in CYP3A5 *1/*3 HLMs with CYP3cide; format: in vitro ADME
T3 construct: For the CYP3A5 experiment, CYP3cide and CYP3A5 * 1/*3 HLMs were pre-warmed; tissue Transheep Co., Ltd. (Shanghai, China) lot: 0710232; host or cells: human liver microsomes, CYP3A5 *1/*3 genotype, treated with CYP3cide
Procedure: as §1, with “incubation. The reaction was stopped with ice-cooled acetonitrile containing prednisolone (0.315 μM).” for “incubation.”
Kinetic parameters of the TDI (KI and kinact refer to the inhibitor concentration causing half-maximal inactivation and the maximal inactivation rate constant, respectively) were determined with Equation (3). kobs refers to the observed inactivation rate of the affected enzyme, determined by the negative slope of the linear regression. kinact is calculated with the negative reciprocal value of the straight line at the Y-intercept, while the interception on X-axis represents KI. [I] stands for the inhibitor concentration. A high ratio of kinact over KI indicates great inhibitory potency. (3) kobs=kinact×[I]/KI+[I]

[10] = design: method as in PMID 24195812; settings: rats, oral administration of SZB; cited from earlier work
[11] = molecular target: T4, CYP3A5 (CYP3A5 *1/*3 HLMs + CYP3cide) (Homo sapiens, UniProt P20815); assay: Reversible inhibition (RI) assay in genotyped HLMs with CYP3cide; format: in vitro ADME; settings: Dixon plot, tacrolimus substrate
T4 construct: For the CYP3A5 experiment, CYP3cide and CYP3A5 * 1/*3 HLMs were pre-warmed; tissue Transheep Co., Ltd. (Shanghai, China) lot: 0710232; host or cells: human liver microsomes, CYP3A5 *1/*3 genotype, treated with CYP3cide
Procedure: as §4, §5

[12] = system: CYP3A; assay: Reversible inhibition (RI) assay, tacrolimus metabolism in pooled HLMs; format: in vitro ADME, human; settings: human, pooled human liver microsomes, pH 7.4, probe tacrolimus (0.25, 0.5, 1, 2 μM), Dixon plot, tacrolimus substrate
Procedure: as §3

T1 sequence (P08684 whole entry): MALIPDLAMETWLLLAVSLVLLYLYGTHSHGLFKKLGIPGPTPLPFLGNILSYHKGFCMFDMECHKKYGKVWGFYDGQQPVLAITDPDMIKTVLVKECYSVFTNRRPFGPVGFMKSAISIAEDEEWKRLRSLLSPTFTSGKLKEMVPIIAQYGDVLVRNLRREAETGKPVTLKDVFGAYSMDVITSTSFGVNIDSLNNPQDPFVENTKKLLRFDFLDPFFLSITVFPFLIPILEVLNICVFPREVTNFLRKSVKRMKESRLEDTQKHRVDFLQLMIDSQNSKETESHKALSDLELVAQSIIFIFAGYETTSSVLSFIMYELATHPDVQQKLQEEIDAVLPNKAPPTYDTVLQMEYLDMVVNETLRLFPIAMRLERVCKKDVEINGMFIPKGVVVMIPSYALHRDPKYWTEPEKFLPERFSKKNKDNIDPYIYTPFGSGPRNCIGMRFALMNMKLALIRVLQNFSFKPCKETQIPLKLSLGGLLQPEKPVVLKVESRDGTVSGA
T3 sequence (P20815 whole entry): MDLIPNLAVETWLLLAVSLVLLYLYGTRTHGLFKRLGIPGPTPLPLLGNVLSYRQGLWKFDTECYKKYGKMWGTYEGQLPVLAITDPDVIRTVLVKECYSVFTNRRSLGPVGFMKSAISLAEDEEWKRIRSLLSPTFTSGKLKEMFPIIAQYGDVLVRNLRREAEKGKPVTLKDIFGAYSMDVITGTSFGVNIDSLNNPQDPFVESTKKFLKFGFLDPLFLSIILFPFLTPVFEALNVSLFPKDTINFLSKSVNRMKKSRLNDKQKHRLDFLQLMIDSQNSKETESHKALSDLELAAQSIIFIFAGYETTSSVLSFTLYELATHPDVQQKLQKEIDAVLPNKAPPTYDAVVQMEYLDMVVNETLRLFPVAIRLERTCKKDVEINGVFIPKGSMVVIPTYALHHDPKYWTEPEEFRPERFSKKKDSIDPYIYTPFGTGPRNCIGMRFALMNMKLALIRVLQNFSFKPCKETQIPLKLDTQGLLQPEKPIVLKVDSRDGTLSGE

Row | microsomal CLint [1] | IC50 at 30 min [3] | IC50 [3] | KI [4] | kinact/KI [4] | kinact [4] | KI [6] | kinact/KI [6] | kinact [6] | Compound | AUC, observed [2] | Cmax, observed [2] | Tmax, observed [2] | reversible inhibition on CYP3A (pattern) [5] | also measured
1 | 50 µL/min/mg | 40400 nM | 63500 nM | 15380 nM | 26 M⁻¹ s⁻¹ | 0.0004 s⁻¹ | 15625 nM | 30.93 M⁻¹ s⁻¹ | 0.000483 s⁻¹ | COc1cc2c(c(OC)c1OC)-c1c(cc(OC)c(OC)c1OC)C[C@](C)(O)[C@@H](C)C2 [SZA, Schizandrol A] | 467.14 ng·h/mL | 111.37 ng/mL | 1.81 h | little reversible inhibition | IC50 shift at 30 min ([3]; IC50 without NADPH preincubation / IC50 with NADPH preincubation): 1.57
2 | 4.5 µL/min/mg | 560 nM | 12000 nM | 690 nM | 8937 M⁻¹ s⁻¹ | 0.00617 s⁻¹ | 430 nM | 1705.5 M⁻¹ s⁻¹ | 0.000733 s⁻¹ | COc1cc2c(c(OC)c1OC)-c1c(cc3c(c1OC)OCO3)C[C@H](C)[C@@](C)(O)C2 [SZB, Schizandrol B] | 242.97 ng·h/mL | 65.18 ng/mL | 1.13 h | competitive and reversible inhibition pattern | increase in bosutinib exposure [7]: 200%; Ki [8]: 2180 nM and 2030 nM; KI ([9]; CYP3A5, genotyped HLMs): 500 nM; kinact/KI ([9]; CYP3A5, genotyped HLMs): 300 M⁻¹ s⁻¹; kinact ([9]; human, CYP3A5 *1/*3 genotyped human liver microsomes with CYP3cide, probe testosterone (200 μM), 6β-hydroxytestosterone formation, with CYP3cide (concentration not stated for this test)): 0.00015 s⁻¹; increase in systemic exposure of tacrolimus [10]: 598.4%; Ki [11]: 2030 nM and 2180 nM; Ki at 10 min [12]: 5820 nM
